“And” between values parts separate entries of the source, which are not always exact repeats. Identical values can stand only once.

The target of this experiment is T1, MMP-9 (Homo sapiens, UniProt P14780).
T1 construct: made in house; host or cells: MMP-9-transfected HT1080 cells (spent media)
T1 sequence (P14780 107-707 limits assumed): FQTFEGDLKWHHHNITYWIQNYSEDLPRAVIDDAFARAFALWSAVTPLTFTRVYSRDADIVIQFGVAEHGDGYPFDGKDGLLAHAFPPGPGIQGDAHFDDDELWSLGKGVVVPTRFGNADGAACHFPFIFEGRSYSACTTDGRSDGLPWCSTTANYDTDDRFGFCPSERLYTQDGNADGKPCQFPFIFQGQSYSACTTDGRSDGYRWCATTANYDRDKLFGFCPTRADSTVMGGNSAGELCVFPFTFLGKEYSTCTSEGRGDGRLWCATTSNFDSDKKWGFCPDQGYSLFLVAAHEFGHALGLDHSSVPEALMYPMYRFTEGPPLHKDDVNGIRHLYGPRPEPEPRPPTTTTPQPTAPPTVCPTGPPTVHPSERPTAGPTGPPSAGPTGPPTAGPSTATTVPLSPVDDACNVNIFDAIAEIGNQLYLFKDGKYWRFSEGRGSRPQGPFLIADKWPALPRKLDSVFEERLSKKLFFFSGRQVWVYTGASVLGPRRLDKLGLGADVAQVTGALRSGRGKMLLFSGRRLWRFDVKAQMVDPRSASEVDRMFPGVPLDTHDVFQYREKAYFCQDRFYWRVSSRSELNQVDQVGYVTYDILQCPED
Briefly: In vitro MMP inhibition, Ki determination (fluorogenic substrate II). The experiment is classed as biochemical. As to conditions: value outside parentheses. The method in brief: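 HT1080-derived MMP-9, activated with APMA, trypsin or MMP-3, incubated 1 hr at room temperature with inhibitor and 4 μM fluorogenic substrate II (at or below Km) in pH 7.5 Tris/NaCl/CaCl2 buffer; ex 330/em 420 nm. Ki from Morrison-equation regression, without substrate correction.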
In the case of `CCc1ccc(C2CCN(S(=O)(=O)C3(C(=O)NO)CCN(CCOC)CC3)CC2)s1` [Example 314], the Ki (as a rule, a measure of affinity in units of concentration, obtained from inhibition or displacement) is 22 nM. The same measure for `O=C(NO)C1(S(=O)(=O)N2CCC(N3CCN(c4ccc(Cl)cc4)CC3)CC2)CCOCC1` [Example 315]: 4960 nM. As to `O=C(NO)C1(S(=O)(=O)N2CCN(c3ccc(-c4ccc(F)cc4F)cn3)CC2)CCOCC1` [Example 316], the Ki amounted to 2.39 nM. For the compound `O=C(NO)C1(S(=O)(=O)N2CCN(c3ccc(-c4ccccc4F)cn3)CC2)CCOCC1` [Example 317], the Ki turned out to be 2.18 nM. Consider `COc1ccccc1-c1ccc(N2CCN(S(=O)(=O)C3(C(=O)NO)CCOCC3)CC2)nc1` [Example 318], for which the Ki is 1380 nM. On to `O=C(NO)C1(S(=O)(=O)N2CCN(c3ccc(-c4cccc(OC(F)(F)F)c4)cn3)CC2)CCOCC1` [Example 319], for which the Ki was found to be 923 nM. With `O=C(NO)C1(S(=O)(=O)N2CCN(c3ccc(CCCC(F)(F)F)cc3)CC2)CCOCC1` [Example 320], the Ki was 1.33 nM.

As to `O=C(NO)C1(S(=O)(=O)N2CCN(c3cnn(CCCC(F)(F)F)c(=O)c3)CC2)CCOCC1` [Example 321], the Ki was greater than 10000 nM.

For `O=C(NO)C1(S(=O)(=O)N2CCN(c3cnn(-c4ccccc4)c(=O)c3)CC2)CCOCC1` [Example 322], the Ki was greater than 10000 nM.

With `COC(=O)c1ccc(N2CCN(S(=O)(=O)C3(C(=O)NO)CCOCC3)CC2)cc1` [Example 324], the Ki was found to be 2.39 nM. For `CCCCOc1ccc(N2CCN(S(=O)(=O)C3(C(=O)NO)CCN(CCOC)CC3)CC2)nc1` [Example 325], the Ki was determined as 0.32 nM. For the compound `O=C(NO)C1(S(=O)(=O)N2CCN(c3ccc(OCC(F)(F)C(F)F)cc3)CC2)CCOCC1` [Example 326], the Ki came to 2.03 nM.

Consider `O=C(NO)C1(S(=O)(=O)N2CCN(c3ccc(-c4ccc(OC(F)(F)F)cc4)cc3)CC2)CCOCC1` [Example 327], for which the Ki came out at 35.6 nM. On to `O=C(NO)C1(S(=O)(=O)N2CCN(c3ccc(-c4ccc(Cl)c(Cl)c4)cc3)CC2)CCOCC1` [Example 328], for which the Ki was 95.7 nM.

For `O=C(NO)C1(S(=O)(=O)N2CCN(c3cnn(-c4ccccc4)c(=O)c3Cl)CC2)CCOCC1` [Example 329], the Ki was greater than 10000 nM. For the compound `O=C(NO)C1(S(=O)(=O)N2CCC(c3ccc(OCC(F)(F)C(F)(F)F)cc3)CC2)CCOCC1` [Example 330], the Ki came to 3.03 nM. With `O=C(NO)C1(S(=O)(=O)N2CCN(c3ccc(Br)cn3)CC2)CCOCC1` [Example 331], the inhibition constant Ki is 1.7 nM.

For `COCCN1CCC(C(=O)NO)(S(=O)(=O)N2CCN(c3ncccn3)CC2)CC1` [Example 332], the Ki worked out at 260 nM. Regarding `O=C(NO)C1(S(=O)(=O)N2CCN(c3ccc(OCC4CC4)c(F)c3)CC2)CCOCC1` [Example 333], the Ki turned out to be 1.05 nM. Turning to `CCCCc1cnc(N2CCN(S(=O)(=O)C3(C(=O)NO)CCN(CCOC)CC3)CC2)nc1` [Example 334], the Ki was determined as 1.19 nM. The same measure for `O=C(NO)C1(S(=O)(=O)N2CCN(c3ccc(CCC(F)(F)C(F)(F)F)cc3)CC2)CCN(C2CC2)CC1` [Example 335]: 0.384 nM; for `O=C(NO)C1(S(=O)(=O)N2CCN(c3ccc(OCC(F)(F)C(F)F)cc3)CC2)CCOCC1` [Example 336]: 1.38 nM; for `O=C(NO)C1(S(=O)(=O)N2CCC(c3ccc(OC(F)(F)C(F)F)cc3)CC2)CCOCC1` [Example 337]: 0.792 nM. The result for `O=C(NO)C1(S(=O)(=O)N2CCC(c3ccc(CCCC(F)(F)F)cn3)CC2)CCOCC1` [Example 338] reads 0.738 nM. As to `O=C(NO)C1(S(=O)(=O)N2CCC(c3ccc(CCC(F)(F)C(F)(F)F)cn3)CC2)CCOCC1` [Example 340], the Ki came out at 0.222 nM.

In the case of `CCN1CCC(C(=O)NO)(S(=O)(=O)N2CCN(c3ccc(-c4ccccc4)c(F)c3)CC2)CC1` [Example 341], the Ki turned out to be 3.77 nM.

As to `O=C(NO)C1(S(=O)(=O)N2CCN(c3ccc(OCCCC(F)(F)F)cc3)CC2)CC(O)C1` (centres unmarked) [Example 342], the Ki was 108 nM. For `O=C(NO)C1(S(=O)(=O)N2CCN(c3ncc(-c4ccc(Cl)cc4)s3)CC2)CCOCC1` [Example 343], the Ki was determined as 0.489 nM. The same measure for `Cc1ccc(-c2cnc(N3CCN(S(=O)(=O)C4(C(=O)NO)CCOCC4)CC3)s2)cc1` [Example 344]: 0.492 nM; for `O=C(NO)C1(S(=O)(=O)N2CCN(c3ncc(-c4ccc(F)cc4)s3)CC2)CCOCC1` [Example 345]: 0.416 nM; for `O=C(NO)C1(S(=O)(=O)N2CCN(c3ncc(-c4ccc(C(F)(F)F)cc4)s3)CC2)CCOCC1` [Example 346]: 2.05 nM. Take `CC(C)(C)c1ccc(-c2cnc(N3CCN(S(=O)(=O)C4(C(=O)NO)CCOCC4)CC3)s2)cc1` [Example 347]: the Ki turned out to be 6.38 nM. For `Cc1ccccc1-c1cnc(N2CCN(S(=O)(=O)C3(C(=O)NO)CCOCC3)CC2)s1` [Example 348], the Ki was 9.57 nM. As to `O=C(NO)C1(S(=O)(=O)N2CCC(c3ccc(OC(F)(F)C(F)(F)F)cc3)CC2)CCOCC1` [Example 349], the Ki stood at 29.2 nM. As for `O=C(NO)C1(S(=O)(=O)N2CCC(c3ccc(OCC(F)(F)C(F)F)cc3)CC2)CCN(C2CC2)CC1` [Example 350], the Ki is 1.21 nM. Turning to `O=C(NO)C1(S(=O)(=O)N2CCC(c3ccc(CCCC(F)(F)F)cc3)CC2)CCN(C2CC2)CC1` [Example 351], the Ki is 0.431 nM. The same measure for `O=C(O)c1ccc(N2CCN(S(=O)(=O)C3(C(=O)NO)CCOCC3)CC2)cc1` [Example 352]: 6610 nM; for `O=C(NO)C1(S(=O)(=O)N2CCC(c3ccc(CCCC(F)(F)F)cc3)CC2)CCOCC1` [Example 353]: 0.546 nM; for `CCCCOc1cccc(N2CCN(S(=O)(=O)C3(C(=O)NO)CCOCC3)CC2)c1` [Example 354]: 786 nM. The same measure for `O=C(NO)C1(S(=O)(=O)N2CCN(c3cccc(OCCCC(F)(F)F)c3)CC2)CCOCC1` [Example 355]: 638 nM; for `CCCCCc1cccc(N2CCN(S(=O)(=O)C3(C(=O)NO)CCOCC3)CC2)c1` [Example 356]: 184 nM; for `O=C(NO)C1(S(=O)(=O)N2CCC(c3ccc(OCC(F)(F)F)cc3)CC2)CCOCC1` [Example 357]: 0.718 nM.

Consider `O=C(NO)C1(S(=O)(=O)N2CCN(c3ccc(CCCC(F)(F)F)cn3)CC2)CCOCC1` [Example 358], for which the Ki is 0.86 nM. Take `O=C(NO)C1(S(=O)(=O)N2CCN(c3ncc(-c4ccc(F)cc4F)s3)CC2)CCOCC1` [Example 359]: the Ki came to 1.21 nM. Turning to `O=C(NO)C1(S(=O)(=O)N2CCN(c3ncc(-c4ccc(-c5ccccc5)cc4)s3)CC2)CCOCC1` [Example 360], the Ki came to 6.28 nM. For `O=C(NO)C1(S(=O)(=O)N2CCN(c3ncc(/C=C/c4ccccc4)s3)CC2)CCOCC1` [Example 361], the Ki was 36.1 nM and 32.9 nM. Turning to `O=C(NO)C1(S(=O)(=O)N2CCN(c3ncc(-c4ccc5c(c4)OCO5)s3)CC2)CCOCC1` [Example 362], the Ki was found to be 1.37 nM. Turning to `O=C(NO)C1(S(=O)(=O)N2CCN(c3ncc(-c4ccc([N+](=O)[O-])cc4)s3)CC2)CCOCC1` [Example 363], the Ki is 1.74 nM.

For `O=C(NO)C1(S(=O)(=O)N2CCN(c3ncc(-c4ccc(OC(F)(F)F)cc4)s3)CC2)CCOCC1` [Example 364], the Ki was 0.802 nM. With `O=C(NO)C1(S(=O)(=O)N2CCN(c3ncc(-c4cccc(-c5ccccc5)c4)s3)CC2)CCOCC1` [Example 365], the Ki stood at 1240 nM.

The values are drawn from patent US20050209278A1, “Piperidinyl- and piperazinyl-sulfonylmethyl hydroxamic acids and their use as protease inhibitors” (priority 2002, published 2005).
